Assay results taken from ChEMBL document CHEMBL4507276 (2021).

What was measured:
[1] = molecular target: Mitogen-activated protein kinase kinase kinase 13 (Homo sapiens) (UniProt O43283); conditions: Compound concentration 1000.0 nM
[2] = molecular target: 5-hydroxytryptamine receptor 6 (Homo sapiens) (UniProt P50406); conditions: Compound concentration 10.0 uM
[3] = molecular target: Serine/threonine-protein kinase pim-2 (Homo sapiens) (UniProt Q9P1W9); test: PIM2 Invitrogen selectivity data (BI); conditions: Compound concentration 3.0 uM
[4] = molecular target: Histamine H3 receptor (Homo sapiens) (UniProt Q9Y5N1); test: H3/NAMEH_H Cerep selectivity data (BI); conditions: filed as antagonist, Compound concentration 20.0 uM
[5] = tested on: Tyrosine-protein kinase ABL1 (Homo sapiens), P00519 [E255K]; test: ABL1 E255K Invitrogen selectivity data (BI); conditions: Compound concentration 3.0 uM
[6] = molecular target: Kappa-type opioid receptor (Homo sapiens) (UniProt P41145); test: KAPPA/HU Eurofins-Panlabs selectivity data (BI); conditions: Compound concentration 10.0 uM
[7] = molecular target: Serine/threonine-protein kinase 26 (Homo sapiens) (UniProt Q9P289); test: MST4 Invitrogen selectivity data (BI); conditions: Compound concentration 3.0 uM
[8] = molecular target: Activated CDC42 kinase 1 (Homo sapiens) (UniProt Q07912); test: TNK2 Invitrogen selectivity data (BI); conditions: Compound concentration 3.0 uM
[9] = molecular target: Mitogen-activated protein kinase 1 (Homo sapiens) (UniProt P28482); test: ERK2(P42MAPK)_CE Cerep selectivity data (BI); conditions: Compound concentration 20.0 uM
[10] = molecular target: T1, Muscarinic acetylcholine receptor M2 (Homo sapiens) (UniProt P08172); test: M2/HU Eurofins-Panlabs selectivity data (BI); conditions: Compound concentration 10.0 uM
T1 sequence (whole entry): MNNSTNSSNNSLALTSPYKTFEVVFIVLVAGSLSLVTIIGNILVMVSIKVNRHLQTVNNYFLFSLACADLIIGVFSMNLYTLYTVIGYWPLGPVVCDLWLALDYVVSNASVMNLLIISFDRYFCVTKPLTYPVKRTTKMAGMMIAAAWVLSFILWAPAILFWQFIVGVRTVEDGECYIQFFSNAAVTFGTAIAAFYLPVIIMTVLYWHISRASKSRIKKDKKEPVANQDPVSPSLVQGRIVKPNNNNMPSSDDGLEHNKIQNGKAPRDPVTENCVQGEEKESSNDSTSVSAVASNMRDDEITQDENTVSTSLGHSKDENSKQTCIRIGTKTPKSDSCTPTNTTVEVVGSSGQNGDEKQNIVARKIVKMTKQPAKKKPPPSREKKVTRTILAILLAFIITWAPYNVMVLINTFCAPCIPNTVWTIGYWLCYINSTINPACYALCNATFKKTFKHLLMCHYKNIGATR

[11] = molecular target: Epidermal growth factor receptor (Homo sapiens) (UniProt P00533); test: EGF/HU Eurofins-Panlabs selectivity data (BI); conditions: Compound concentration 10.0 uM
[12] = molecular target: Gamma-aminobutyric acid receptor subunit alpha-1 (Rattus norvegicus) (UniProt P62813); test: BZD/CENTR/R Cerep selectivity data (BI); conditions: Compound concentration 20.0 uM
[13] = molecular target: Mitogen-activated protein kinase 8 (Homo sapiens) (UniProt P45983); test: MAPK8 Invitrogen selectivity data (BI); conditions: Compound concentration 3.0 uM
[14] = molecular target: Fibroblast growth factor receptor 4 (Homo sapiens) (UniProt P22455); test: FGFR4 Invitrogen selectivity data (BI); conditions: Compound concentration 3.0 uM
[15] = molecular target: Tyrosine-protein kinase HCK (Homo sapiens) (UniProt P08631); test: HCK Invitrogen selectivity data (BI); conditions: Compound concentration 3.0 uM
Chain of Tyrosine-protein kinase HCK (Homo sapiens) (P08631 2-526 limits assumed): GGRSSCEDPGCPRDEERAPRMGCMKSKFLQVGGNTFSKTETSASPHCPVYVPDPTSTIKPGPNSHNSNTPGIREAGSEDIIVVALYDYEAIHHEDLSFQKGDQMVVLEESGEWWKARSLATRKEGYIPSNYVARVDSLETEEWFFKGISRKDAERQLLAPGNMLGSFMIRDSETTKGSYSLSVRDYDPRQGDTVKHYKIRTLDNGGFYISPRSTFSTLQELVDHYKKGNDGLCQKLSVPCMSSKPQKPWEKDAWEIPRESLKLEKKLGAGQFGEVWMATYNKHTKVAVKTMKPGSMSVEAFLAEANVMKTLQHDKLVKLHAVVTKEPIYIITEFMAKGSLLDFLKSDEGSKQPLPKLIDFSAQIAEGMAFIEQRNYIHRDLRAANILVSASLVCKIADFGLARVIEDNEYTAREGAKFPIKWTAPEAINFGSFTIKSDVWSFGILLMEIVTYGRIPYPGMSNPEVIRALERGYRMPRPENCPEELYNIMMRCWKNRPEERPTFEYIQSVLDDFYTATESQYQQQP

[16] = molecular target: Ephrin type-A receptor 7 (Homo sapiens) (UniProt Q15375); test: EPHA7 Invitrogen selectivity data (BI); conditions: Compound concentration 3.0 uM
Chain of Ephrin type-A receptor 7 (Homo sapiens) (Q15375 28-998 limits assumed): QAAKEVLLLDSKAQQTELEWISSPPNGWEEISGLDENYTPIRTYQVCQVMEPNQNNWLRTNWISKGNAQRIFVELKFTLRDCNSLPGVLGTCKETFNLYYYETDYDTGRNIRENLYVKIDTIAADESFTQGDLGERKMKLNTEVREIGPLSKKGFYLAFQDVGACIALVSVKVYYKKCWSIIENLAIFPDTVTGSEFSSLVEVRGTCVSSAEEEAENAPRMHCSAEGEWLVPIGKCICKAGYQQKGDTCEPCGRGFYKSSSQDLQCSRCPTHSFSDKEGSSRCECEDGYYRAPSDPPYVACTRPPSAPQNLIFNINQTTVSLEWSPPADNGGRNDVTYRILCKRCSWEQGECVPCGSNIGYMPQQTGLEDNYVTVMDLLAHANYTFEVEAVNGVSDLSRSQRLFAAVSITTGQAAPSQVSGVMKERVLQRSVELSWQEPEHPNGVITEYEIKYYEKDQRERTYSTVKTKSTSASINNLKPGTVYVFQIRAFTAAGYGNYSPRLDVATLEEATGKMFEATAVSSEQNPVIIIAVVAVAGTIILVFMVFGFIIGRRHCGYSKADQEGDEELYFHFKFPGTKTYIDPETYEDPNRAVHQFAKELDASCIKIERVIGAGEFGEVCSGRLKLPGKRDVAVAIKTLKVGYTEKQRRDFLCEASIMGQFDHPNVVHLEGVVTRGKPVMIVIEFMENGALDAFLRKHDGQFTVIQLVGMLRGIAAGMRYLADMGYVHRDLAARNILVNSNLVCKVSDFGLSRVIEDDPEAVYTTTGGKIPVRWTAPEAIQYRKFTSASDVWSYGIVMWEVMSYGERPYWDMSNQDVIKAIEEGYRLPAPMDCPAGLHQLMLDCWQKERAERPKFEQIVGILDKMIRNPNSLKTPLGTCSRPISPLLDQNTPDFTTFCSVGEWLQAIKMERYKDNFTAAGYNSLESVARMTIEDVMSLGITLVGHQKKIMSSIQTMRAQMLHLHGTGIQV

[17] = molecular target: Protein kinase C beta type (Homo sapiens) (UniProt P05771); test: PRKCB2 Invitrogen selectivity data (BI); conditions: Compound concentration 3.0 uM
Chain of Protein kinase C beta type (Homo sapiens) (P05771 2-671 limits assumed): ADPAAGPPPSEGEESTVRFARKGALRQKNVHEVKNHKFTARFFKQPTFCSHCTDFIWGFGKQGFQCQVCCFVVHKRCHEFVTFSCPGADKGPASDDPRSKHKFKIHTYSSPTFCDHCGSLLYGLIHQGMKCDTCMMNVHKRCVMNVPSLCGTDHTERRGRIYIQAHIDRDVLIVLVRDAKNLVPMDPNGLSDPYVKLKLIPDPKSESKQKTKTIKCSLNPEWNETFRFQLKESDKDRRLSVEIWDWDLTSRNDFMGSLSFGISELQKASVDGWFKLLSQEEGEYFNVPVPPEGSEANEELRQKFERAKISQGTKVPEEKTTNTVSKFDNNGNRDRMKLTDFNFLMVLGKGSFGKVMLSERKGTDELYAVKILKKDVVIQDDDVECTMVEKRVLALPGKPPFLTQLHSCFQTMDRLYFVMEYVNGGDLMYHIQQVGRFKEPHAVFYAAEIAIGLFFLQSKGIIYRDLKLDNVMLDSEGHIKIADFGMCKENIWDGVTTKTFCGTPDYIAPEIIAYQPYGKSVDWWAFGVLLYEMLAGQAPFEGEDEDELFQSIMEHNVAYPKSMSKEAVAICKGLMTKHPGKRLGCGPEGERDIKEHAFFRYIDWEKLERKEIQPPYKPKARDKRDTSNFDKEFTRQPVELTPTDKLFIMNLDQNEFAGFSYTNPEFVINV

[18] = molecular target: Epithelial discoidin domain-containing receptor 1 (Homo sapiens) (UniProt Q08345); test: DDR1 Invitrogen selectivity data (BI); conditions: Compound concentration 3.0 uM
[19] = molecular target: Tumor necrosis factor (Homo sapiens) (UniProt P01375); test: TNFALPHA/H Cerep selectivity data (BI); conditions: Compound concentration 20.0 uM
[20] = molecular target: Platelet-activating factor receptor (Homo sapiens) (UniProt P25105); test: PAF Cerep selectivity data (BI); conditions: filed as agonist, Compound concentration 20.0 uM
[21] = molecular target: Sodium-dependent noradrenaline transporter (Homo sapiens) (UniProt P23975); test: NEUP/H Cerep selectivity data (BI); conditions: Compound concentration 20.0 uM
[22] = molecular target: Melatonin receptor type 1A (Homo sapiens) (UniProt P48039); test: MT1 (ML1A) Cerep selectivity data (BI); conditions: Compound concentration 20.0 uM
[23] = tested on: Epidermal growth factor receptor (Homo sapiens), P00533 [UNDEFINED MUTATION]; test: EGFRT790L858 Invitrogen selectivity data (BI); conditions: Compound concentration 3.0 uM
[24] = molecular target: Proto-oncogene tyrosine-protein kinase Src (Homo sapiens) (UniProt P12931); test: SRC Invitrogen selectivity data (BI); conditions: Compound concentration 3.0 uM
[25] = molecular target: Leukocyte tyrosine kinase receptor (Homo sapiens) (UniProt P29376); test: LTK Invitrogen selectivity data (BI); conditions: Compound concentration 3.0 uM
[26] = molecular target: Serine/threonine-protein kinase Nek6 (Homo sapiens) (UniProt Q9HC98); test: NEK6 Invitrogen selectivity data (BI); conditions: Compound concentration 3.0 uM
Chain of Serine/threonine-protein kinase Nek6 (Homo sapiens) (Q9HC98 whole entry): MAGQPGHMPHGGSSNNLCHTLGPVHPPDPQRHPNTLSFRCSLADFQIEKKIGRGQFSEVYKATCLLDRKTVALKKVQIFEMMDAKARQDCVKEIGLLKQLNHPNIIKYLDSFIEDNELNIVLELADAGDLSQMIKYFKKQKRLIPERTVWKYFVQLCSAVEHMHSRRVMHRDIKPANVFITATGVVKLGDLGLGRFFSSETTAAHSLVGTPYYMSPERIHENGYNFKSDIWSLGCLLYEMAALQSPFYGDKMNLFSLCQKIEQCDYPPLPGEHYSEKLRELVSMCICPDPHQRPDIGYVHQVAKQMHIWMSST

[27] = molecular target: L-type Ca2+ channel (diltiazem site), Cav1.2 alpha-1C (Rattus norvegicus, UniProt P22002); test: CA+/DILSI/RA Eurofins-Panlabs selectivity data (BI); conditions: compound concentration 10 uM, read-out: % Ctrl
[28] = molecular target: Melanocortin receptor 4 (Homo sapiens) (UniProt P32245); test: MC4/HU Cerep selectivity data (BI); conditions: Compound concentration 20.0 uM
[29] = molecular target: Dual specificity tyrosine-phosphorylation-regulated kinase 1A (Homo sapiens) (UniProt Q13627); test: DYRK1A Invitrogen selectivity data (BI); conditions: Compound concentration 3.0 uM
[30] = molecular target: Mitogen-activated protein kinase 14 (Homo sapiens) (UniProt Q16539); test: MAPK14 Invitrogen selectivity data (BI); conditions: Compound concentration 3.0 uM
[31] = molecular target: Receptor-type tyrosine-protein kinase FLT3 (Homo sapiens) (UniProt P36888); test: FLT3 Invitrogen selectivity data (BI); conditions: Compound concentration 3.0 uM
[32] = molecular target: T1, Muscarinic acetylcholine receptor M2 (Homo sapiens); test: M2/H Cerep selectivity data (BI); conditions: filed as antagonist, Compound concentration 20.0 uM
[33] = molecular target: Serine/threonine-protein kinase Nek7 (Homo sapiens) (UniProt Q8TDX7); test: NEK7 Invitrogen selectivity data (BI); conditions: Compound concentration 3.0 uM
Chain of Serine/threonine-protein kinase Nek7 (Homo sapiens) (Q8TDX7 whole entry, looked up): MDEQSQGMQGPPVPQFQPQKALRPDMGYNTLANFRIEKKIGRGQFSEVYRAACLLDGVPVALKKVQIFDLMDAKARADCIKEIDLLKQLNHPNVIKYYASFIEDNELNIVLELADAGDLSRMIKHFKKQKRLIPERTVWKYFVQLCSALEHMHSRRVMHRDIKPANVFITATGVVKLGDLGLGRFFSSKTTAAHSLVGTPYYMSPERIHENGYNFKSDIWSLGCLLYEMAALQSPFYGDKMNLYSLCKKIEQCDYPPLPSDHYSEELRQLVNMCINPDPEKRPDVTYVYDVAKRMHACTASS

[34] = molecular target: Histamine H2 receptor (Homo sapiens) (UniProt P25021); test: H2/H Eurofins-Panlabs selectivity data (BI); conditions: Compound concentration 10.0 uM
[35] = molecular target: Fibroblast growth factor receptor 2 (Homo sapiens) (UniProt P21802); test: FGFR2 Invitrogen selectivity data (BI); conditions: Compound concentration 3.0 uM
[36] = molecular target: SRSF protein kinase 2 (Homo sapiens) (UniProt P78362); test: SRPK2 Invitrogen selectivity data (BI); conditions: Compound concentration 3.0 uM
Chain of SRSF protein kinase 2 (Homo sapiens) (P78362 whole entry, looked up): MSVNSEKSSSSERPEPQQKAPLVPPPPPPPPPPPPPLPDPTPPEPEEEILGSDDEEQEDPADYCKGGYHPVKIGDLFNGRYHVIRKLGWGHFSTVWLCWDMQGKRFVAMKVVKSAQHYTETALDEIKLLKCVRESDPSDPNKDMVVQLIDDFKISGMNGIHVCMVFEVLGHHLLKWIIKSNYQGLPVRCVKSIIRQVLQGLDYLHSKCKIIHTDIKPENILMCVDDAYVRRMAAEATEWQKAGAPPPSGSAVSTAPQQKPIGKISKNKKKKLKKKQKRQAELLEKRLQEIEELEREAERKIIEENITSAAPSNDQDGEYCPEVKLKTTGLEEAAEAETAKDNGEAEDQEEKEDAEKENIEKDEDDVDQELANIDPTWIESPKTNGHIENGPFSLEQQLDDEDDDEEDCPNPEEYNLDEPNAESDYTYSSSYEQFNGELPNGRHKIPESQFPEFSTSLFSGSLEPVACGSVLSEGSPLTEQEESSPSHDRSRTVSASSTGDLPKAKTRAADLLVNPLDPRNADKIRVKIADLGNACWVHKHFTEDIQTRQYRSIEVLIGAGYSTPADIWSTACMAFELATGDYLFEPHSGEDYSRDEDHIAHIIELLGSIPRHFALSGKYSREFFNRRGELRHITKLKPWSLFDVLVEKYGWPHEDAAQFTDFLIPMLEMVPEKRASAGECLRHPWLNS

[37] = molecular target: Serine/threonine-protein kinase 33 (Homo sapiens) (UniProt Q9BYT3); test: STK33 Invitrogen selectivity data (BI); conditions: Compound concentration 3.0 uM
[38] = molecular target: AMPK alpha2/beta1/gamma1 (Homo sapiens) (UniProt P54646+P54619+Q9Y478); test: AMPK A2B1G1 Invitrogen selectivity data (BI); assay type: protein-complex assay; conditions: Compound concentration 3.0 uM
[39] = molecular target: Protein kinase C alpha type (Homo sapiens) (UniProt P17252); test: PRKCA Invitrogen selectivity data (BI); conditions: Compound concentration 3.0 uM
[40] = tested on: Proto-oncogene tyrosine-protein kinase receptor Ret (Homo sapiens), P07949 [V804L]; test: RET V804L Invitrogen selectivity data (BI); conditions: Compound concentration 3.0 uM

Chain of 5-hydroxytryptamine receptor 6 (Homo sapiens) (P50406 whole entry): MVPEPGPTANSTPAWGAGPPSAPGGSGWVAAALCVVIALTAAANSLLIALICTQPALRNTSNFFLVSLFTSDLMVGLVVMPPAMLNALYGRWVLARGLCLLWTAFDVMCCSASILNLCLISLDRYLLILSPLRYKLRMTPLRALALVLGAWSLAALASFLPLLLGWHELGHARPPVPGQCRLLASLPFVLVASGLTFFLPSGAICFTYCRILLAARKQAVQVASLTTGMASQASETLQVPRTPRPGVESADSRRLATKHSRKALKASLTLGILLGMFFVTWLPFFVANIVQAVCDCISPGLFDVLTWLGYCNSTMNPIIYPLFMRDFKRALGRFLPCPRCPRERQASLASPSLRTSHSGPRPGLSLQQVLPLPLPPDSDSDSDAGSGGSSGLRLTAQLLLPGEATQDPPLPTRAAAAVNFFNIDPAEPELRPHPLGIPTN
Chain of Mitogen-activated protein kinase kinase kinase 13 (Homo sapiens) (O43283 whole entry): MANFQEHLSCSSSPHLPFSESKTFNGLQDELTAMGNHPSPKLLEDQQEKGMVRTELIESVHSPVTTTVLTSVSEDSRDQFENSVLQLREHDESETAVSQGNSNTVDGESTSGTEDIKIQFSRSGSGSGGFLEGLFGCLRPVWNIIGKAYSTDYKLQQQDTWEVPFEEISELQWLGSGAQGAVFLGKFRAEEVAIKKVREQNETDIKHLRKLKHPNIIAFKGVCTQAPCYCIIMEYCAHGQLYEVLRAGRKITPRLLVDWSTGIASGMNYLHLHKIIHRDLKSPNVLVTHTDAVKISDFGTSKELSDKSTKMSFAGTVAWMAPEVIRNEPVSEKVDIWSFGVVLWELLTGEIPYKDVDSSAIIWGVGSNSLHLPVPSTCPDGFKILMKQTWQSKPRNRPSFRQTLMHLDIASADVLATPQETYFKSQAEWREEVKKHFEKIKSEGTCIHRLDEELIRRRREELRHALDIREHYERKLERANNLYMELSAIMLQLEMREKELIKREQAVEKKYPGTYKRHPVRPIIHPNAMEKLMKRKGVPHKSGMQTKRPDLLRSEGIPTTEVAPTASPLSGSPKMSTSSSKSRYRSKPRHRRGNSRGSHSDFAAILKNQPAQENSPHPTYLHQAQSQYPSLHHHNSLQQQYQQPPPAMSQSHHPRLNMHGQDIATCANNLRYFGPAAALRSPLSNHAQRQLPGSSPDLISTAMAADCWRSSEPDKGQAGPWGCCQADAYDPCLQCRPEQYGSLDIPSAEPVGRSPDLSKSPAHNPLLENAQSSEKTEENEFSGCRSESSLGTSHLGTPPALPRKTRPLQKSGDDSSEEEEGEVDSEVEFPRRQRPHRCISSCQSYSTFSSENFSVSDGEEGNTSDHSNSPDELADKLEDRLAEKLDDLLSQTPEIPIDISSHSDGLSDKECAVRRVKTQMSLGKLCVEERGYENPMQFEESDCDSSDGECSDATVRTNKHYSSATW

CN(C)C(=O)Cn1cc(-c2nc(C3(c4ccc(-c5cnc(N)nc5)cc4)CC3)no2)cn1 [BI 0153]
inactive: residual activity [1] 100% | inhibition [2] -7.48%

CN(C)C(=O)Cn1cc(-c2nc([C@@](C)(c3ccc(-c4cnc(N)nc4)cc3)C3CC3)no2)cn1 [BI 665915]
inactive: residual activity [3] 101% | residual activity [4] 108% | residual activity [5] 82% | residual activity [6] 102% | residual activity [7] 99% | residual activity [8] 99% | residual activity [9] 114% | residual activity [10] 98% | residual activity [11] 103% | residual activity [12] 117% | residual activity [13] 93% | residual activity [14] 96.5% | residual activity [15] 85% | residual activity [16] 78% | residual activity [17] 100% | residual activity [18] 99% | residual activity [19] 87% | residual activity [20] 65% | residual activity [21] 94% | residual activity [22] 91% | residual activity [23] 101% | residual activity [24] 90.5% | residual activity [25] 96.5% | residual activity [26] 96% | residual activity [28] 109% | residual activity [29] 100% | residual activity [30] 107% | residual activity [31] 89% | residual activity [32] 98% | residual activity [33] 99% | residual activity [34] 98% | residual activity [35] 89% | residual activity [36] 98% | residual activity [37] 101% | residual activity [38] 100% | residual activity [39] 102% | residual activity [40] 72%
73% (not active): activity at 10 µM [27]
